The text below walks through data of patent US7153844B2, “Estrogen-linked platinum (II) complexes as anticancer agents” (priority 2002, dated 2006).

Common to all, as to experiment: Cell proliferation with the MTT assay
Type in all cases: cell-based, human
For orientation: Tetrazolium assays rely on reduction of a dye to a coloured formazan, in cell work by metabolically active cells.

One assay concerns A2780cp. The following applies: read-out: IC50 (Inhibitory concentration 50%), ovary, ER−, NR = IC50 not reach at the concentrations tested. An excerpt:
(§1) Cell Proliferation with the MTT Assay (Uterine, Ovarian and Breast Cancer Cell Lines)
(§2) Several human uterine, ovarian and breast cancer cell lines were used to evaluate the antitumor activities of the new estrogen-linked platinum (II) complexes. The cytotoxicity of the platinum (II) complexes was done along with cisplatin as the control on both ER+ and ER— human uterine, ovarian and breast carcinomas. Cell proliferation was done with the MTT assay as described by J. Carmichael et al. (Cancer Res. 47, 943–946 (1987) see also C. H. J. Ford et al., Cancer Chemother. Pharmacol. 24, 295–301 (1986)). The MTT assay is based on the ability of viable cells to reduce a soluble colorless tetrazolium salt, 3-(4,5-dimethylthiazol-2-yl)-2,5-diphenyltetrazolium bromide (MTT), into an insoluble blue formazan derivative.

The test system of the next assay is A2780wt. Conditions: read-out: IC50 (Inhibitory concentration 50%), ovary, ER−, NR = IC50 not reach at the concentrations tested.
Text: as §1, §2

The test system of another assay is HEC-1A. The following applies: read-out: IC50 (Inhibitory concentration 50%), uterus, ER−, NR = IC50 not reach at the concentrations tested.
Text: as §1, §2

In a further assay the test system is HS578T. Conditions: read-out: IC50 (Inhibitory concentration 50%), breast, ER−, NR = IC50 not reach at the concentrations tested.
Text: as §1, §2

The test system of another assay is HeLa. Conditions: read-out: IC50 (Inhibitory concentration 50%), uterus, ER−, NR = IC50 not reach at the concentrations tested.
Text: as §1, §2

The subject of the next assay is Ishikawa. Conditions: read-out: IC50 (Inhibitory concentration 50%), uterus, ER+, NR = IC50 not reach at the concentrations tested.
Text: as §1, §2

The test system of a further assay is KLE. Conditions: read-out: IC50 (Inhibitory concentration 50%), uterus, ER−, NR = IC50 not reach at the concentrations tested.
Text: as §1, §2

In the next assay the test system is MCF-7. The following applies: read-out: IC50 (Inhibitory concentration 50%), MCF-7, breast, ER+, NR = IC50 not reach at the concentrations tested.
Text: as §1, §2

Another assay deals with MDA-MB-231. The following applies: read-out: IC50 (Inhibitory concentration 50%), MDA-MB-231, breast, ER−, NR = IC50 not reach at the concentrations tested.
Text: as §1, §2

The next assay has as its system OVCAR-3. The following applies: read-out: IC50 (Inhibitory concentration 50%), OVCAR-3, ovary, ER+, NR = IC50 not reach at the concentrations tested.
Text: as §1, §2

For the next assay, the system named is RL-95-2. Conditions: read-out: IC50 (Inhibitory concentration 50%), RL-95-2, uterus, ER+, NR = IC50 not reach at the concentrations tested.
Text: as §1, §2

A further assay has as its system SKOV-3. The following applies: read-out: IC50 (Inhibitory concentration 50%), SKOV-3, ovary, ER+, NR = IC50 not reach at the concentrations tested.
Text: as §1, §2

A further assay deals with ZR-75-1. Conditions: read-out: IC50 (Inhibitory concentration 50%), ZR-75-1, breast, ER+, NR = IC50 not reach at the concentrations tested.
Text: as §1, §2

Regarding `C[C@]12CCC3c4ccc(O)cc4CCC3C1C[C@@](CO)(CCCCCCNCc1ccccn1)[C@@H]2O.[Cl][Pt][Cl]` (stereo partly drawn) [derivative 14 (∘ = 1, p = 4), 16β-hydroxymethyl-16α-[6-(1-pyridin-2-yl-methylamino)-hexyl]-1,3,5(10)-estratrien-3,17β-diol dichloroplatinum (II)], the IC50 in the assay on A2780cp is over 40 µM; in the assay with A2780wt it was 23.5 µM; in the assay with HEC-1A, 19.5 µM; in the assay with HS578T it was 36.2 µM; with HeLa, 36.2 µM; with Ishikawa it was over 40 µM. The IC50 in the assay on KLE was 36.2 µM; in the assay with MCF-7 it was over 40 µM; in the assay on MDA-MB-231 it was over 40 µM; with OVCAR-3 it was over 40 µM; in the assay with RL-95-2, 16 µM; with SKOV-3, over 40 µM. Moreover, in the assay with ZR-75-1, the IC50 was over 40 µM.
With `C[C@]12CCC3c4ccc(O)cc4CCC3C1C[C@@](CO)(CCCCNCCc1ccccn1)[C@@H]2O.[Cl][Pt][Cl]` (stereo partly drawn) [derivative 14 (∘ = 2, p = 2), 16β-hydroxymethyl-16α-[4-(2-pyridin-2-yl-ethylamino)-butyl]-1,3,5(10)-estratrien-3,17β-diol dichloroplatinum (II)], the IC50 is 30.5 µM in the assay with A2780cp; 19.5 µM in the assay with A2780wt; 26.3 µM with HEC-1A; 33 µM in the assay on HS578T; 34.5 µM with HeLa; 16 µM in the assay on Ishikawa. Also, the IC50 was over 40 µM in the assay on KLE; 28.5 µM in the assay on MCF-7; over 40 µM with MDA-MB-231; 31.2 µM with OVCAR-3; 10 µM with RL-95-2; 35.6 µM with SKOV-3. Moreover, in the assay with ZR-75-1, the IC50 was 26.3 µM.
With `C[C@]12CCC3c4ccc(O)cc4CCC3C1C[C@@](CO)(CCCCCCCCCCNCCc1ccccn1)[C@@H]2O.[Cl][Pt][Cl]` (stereo partly drawn) [derivative 14 (∘ = 2, p = 8), 16β-hydroxymethyl-16α-[10-(2-pyridin-2-yl-ethylamino)-decyl]-1,3,5(10)-estratrien-3,17β-diol dichloroplatinum (II)], the IC50 in the assay on A2780cp was 2 µM; in the assay with A2780wt, 1.65 µM; with HEC-1A, 2.4 µM; in the assay with HS578T, 3.3 µM; in the assay with HeLa, 6.8 µM; in the assay with Ishikawa, 2.2 µM. For the same compound, the IC50 with KLE amounted to 3.7 µM; with MCF-7, 4 µM; in the assay with MDA-MB-231, 4 µM; in the assay with OVCAR-3 it was 9.5 µM; in the assay with RL-95-2 it was 3.1 µM; in the assay with SKOV-3, 5.8 µM. The IC50 in the assay on ZR-75-1 was determined as 2.5 µM.
With `C[C@]12CCC3c4ccc(O)cc4CCC3C1C[C@@](CO)(CCCCNCc1ccccn1)[C@@H]2O.[Cl][Pt][Cl]` (stereo partly drawn) [derivative 14 (∘ = 1, p = 2), 16β-hydroxymethyl-16α-[4-(1-pyridin-2-yl-methylamino)-butyl]-1,3,5(10)-estratrien-3,17β-diol dichloroplatinum (II)], the IC50 is over 40 µM with A2780cp; 33.7 µM in the assay on A2780wt; over 40 µM with HEC-1A; over 40 µM with HS578T; over 40 µM in the assay on HeLa; 36 µM in the assay on Ishikawa. The IC50 with KLE is over 40 µM; with MCF-7, over 40 µM; with MDA-MB-231, over 40 µM; with OVCAR-3, over 40 µM; with RL-95-2, 40 µM; in the assay with SKOV-3, over 40 µM. In the assay with ZR-75-1, the IC50 is over 40 µM.
In the case of `C[C@]12CCC3c4ccc(O)cc4CCC3C1C[C@@](CO)(CCCCCCCCNCc1ccccn1)[C@@H]2O.[Cl][Pt][Cl]` (stereo partly drawn) [derivative 14 (∘ = 1, p = 6), 16β-hydroxymethyl-16α-[8-(1-pyridin-2-yl-methylamino)-octyl]-1,3,5(10)-estratrien-3,17β-diol dichloroplatinum (II)], the IC50 was 11 µM with A2780cp; 6.3 µM in the assay on A2780wt; 9.2 µM with HEC-1A; 17.5 µM in the assay with HS578T; 34.4 µM in the assay on HeLa; 19.5 µM in the assay with Ishikawa. Besides, the IC50 with KLE amounted to 19.5 µM; in the assay with MCF-7, 20 µM; with MDA-MB-231, 40 µM; in the assay on OVCAR-3 it was 18.8 µM; in the assay on RL-95-2, 7.8 µM; with SKOV-3 it was 35 µM. Moreover, the IC50 with ZR-75-1 was determined as 11.2 µM.
Take `C[C@]12CCC3c4ccc(O)cc4CCC3C1C[C@@](CO)(CCCCCCCCCCNCc1ccccn1)[C@@H]2O.[Cl][Pt][Cl]` (stereo partly drawn) [derivative 14 (∘ = 1, p = 8), 16β-hydroxymethyl-16α-[10-(1-pyridin-2-yl-methylamino)-decyl]-1,3,5(10)-estratrien-3,17β-diol dichloroplatinum (II)]: the IC50 in the assay with A2780cp was 16.6 µM; in the assay on A2780wt, 10 µM; in the assay on HEC-1A, 15.6 µM; in the assay on HS578T it was 34.9 µM; with HeLa, 32.2 µM; with Ishikawa it was over 40 µM. The IC50 is 9.5 µM with KLE; 17.7 µM in the assay with MCF-7; 15.3 µM in the assay with MDA-MB-231; 40 µM with OVCAR-3; 9.5 µM in the assay on RL-95-2; over 40 µM with SKOV-3. For the same compound, the IC50 in the assay on ZR-75-1 was determined as 27.6 µM.
For `C[C@]12CCC3c4ccc(O)cc4CCC3C1C[C@@](CO)(CCCCCCNCCc1ccccn1)[C@@H]2O.[Cl][Pt][Cl]` (stereo partly drawn) [derivative 14 (∘ = 2, p = 4), 16β-hydroxymethyl-16α-[6-(2-pyridin-2-yl-ethylamino)-hexyl]-1,3,5(10)-estratrien-3,17β-diol dichloroplatinum (II)], the IC50 is 7 µM in the assay on A2780cp; 5 µM with A2780wt; 6.4 µM with HEC-1A; 7.25 µM in the assay with HS578T; 8.9 µM with HeLa; 20 µM with Ishikawa. Besides, the IC50 with KLE is 8.9 µM; with MCF-7, 7 µM; in the assay on MDA-MB-231, over 40 µM; in the assay on OVCAR-3, 12.5 µM; with RL-95-2, 6.4 µM; with SKOV-3, 12.5 µM. Further, the IC50 in the assay with ZR-75-1 was 11.4 µM.
As to “16β-hydroxymethyl-16α-[8′-(2-pyridin-2-yl-ethylamino)-3′,6′-dioxaoctyl]-1,3,5(10)-estratrien-3,17β-diol dichloroplatinum (II) [derivative 23]”, the IC50 worked out at 16 µM in the assay with A2780cp; 7.9 µM in the assay on A2780wt; 20.4 µM in the assay with HEC-1A; 16.2 µM in the assay with HS578T; 13.8 µM in the assay on HeLa; 2.5 µM in the assay with Ishikawa. Further, the IC50 in the assay with KLE was found to be 17.5 µM; in the assay on MCF-7, 12.7 µM; with MDA-MB-231, 18.8 µM; in the assay with OVCAR-3 it was 33.8 µM; with RL-95-2 it was 6.25 µM; with SKOV-3 it was 32.5 µM. Further, in the assay on ZR-75-1, the IC50 turned out to be 14.6 µM.
On to `C[C@]12CCC3c4ccc(O)cc4CCC3C1C[C@@](CO)(CCCCCCCCNCCc1ccccn1)[C@@H]2O.[Cl][Pt][Cl]` (stereo partly drawn) [derivative 14 (∘ = 2, p = 6), 16β-hydroxymethyl-16α-[8′-(2-pyridin-2-yl-ethylamino)-octyl]-1,3,5(10)-estratrien-3,17β-diol dichloroplatinum (II)], for which the IC50 with A2780cp was found to be 3.6 µM; in the assay with A2780wt, 3.3 µM; with HEC-1A it was 2.1 µM; in the assay with HS578T it was 4.3 µM; in the assay on HeLa it was 4.6 µM; in the assay with Ishikawa it was 8 µM. For the same compound, the IC50 with KLE worked out at 2.7 µM; in the assay on MCF-7, 6.4 µM; in the assay with MDA-MB-231 it was 10.5 µM; in the assay on OVCAR-3 it was 5 µM; in the assay on RL-95-2, 0.1 µM; in the assay with SKOV-3, 4.8 µM. Further, the IC50 in the assay with ZR-75-1 was found to be 4.6 µM.
